Measured values from the supplement of paper PMC10307832.

How the values were obtained:
Test in all cases: relative viability (nuclei count vs DMSO), 5 days (fraction); higher = more cells survive
Nelarabine + AZD7762 = compound: COc1nc(N)nc2c1ncn2[C@@H]1O[C@H](CO)[C@@H](O)[C@@H]1O [Nelarabine] + NC(=O)Nc1cc(-c2cccc(F)c2)sc1C(=O)N[C@H]1CCCNC1 [AZD7762] (partner 0.2 µM)
In short: (§1)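 Lung cancer cell lines were pin-tool dosed in 1536-well plates on the day after seeding, with either a lone drug or a fixed anchor-drug dose plus five library-drug doses (not always all listed) in √10 steps. Nuclei were counted on 4× images after 5 days. Relative viability is the ratio of treated-well to vehicle-well nuclei counts, with each value a median of duplicate plates.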

Adavosertib + Trametinib = compound: C=CCn1c(=O)c2cnc(Nc3ccc(N4CCN(C)CC4)cc3)nc2n1-c1cccc(C(C)(C)O)n1 [Adavosertib] + CC(=O)Nc1cccc(-n2c(=O)n(C3CC3)c(=O)c3c(Nc4ccc(I)cc4F)n(C)c(=O)c(C)c32)c1 [Trametinib] (partner 0.02 µM)
In short: as §1

Nelarabine + Palbociclib = compound: COc1nc(N)nc2c1ncn2[C@@H]1O[C@H](CO)[C@@H](O)[C@@H]1O [Nelarabine] + CC(=O)c1c(C)c2cnc(Nc3ccc(N4CCNCC4)cn3)nc2n(C2CCCC2)c1=O [Palbociclib] (partner 0.5 µM)
In short: as §1

Adavosertib + Crizotinib = compound: C=CCn1c(=O)c2cnc(Nc3ccc(N4CCN(C)CC4)cc3)nc2n1-c1cccc(C(C)(C)O)n1 [Adavosertib] + C[C@@H](Oc1cc(-c2cnn(C3CCNCC3)c2)cnc1N)c1c(Cl)ccc(F)c1Cl [Crizotinib] (partner 1 µM)
In short: as §1

For EMC-BAC-2, the relative viability (Nelarabine + AZD7762; first compound 0.01 µM) was 1.2, the relative viability (Nelarabine + AZD7762; first compound 0.03162 µM) was 1.1 and the relative viability (Nelarabine + AZD7762; first compound 0.1 µM) was 1.18. For the same cell line, the relative viability (Nelarabine + AZD7762; first compound 0.3162 µM) was 1.22, the relative viability (Nelarabine + AZD7762; first compound 1 µM) was 1.17 and the relative viability (Adavosertib + Trametinib; first compound 0.03162 µM) was 0.938. It also gave a relative viability (Adavosertib + Trametinib; first compound 0.1 µM) of 0.894, a relative viability (Adavosertib + Trametinib; first compound 0.3162 µM) of 0.927 and a relative viability (Nelarabine + Palbociclib; first compound 0.01 µM) of 0.539. The relative viability (Nelarabine + Palbociclib; first compound 0.03162 µM) was 0.514, the relative viability (Nelarabine + Palbociclib; first compound 0.1 µM) was 0.512 and the relative viability (Nelarabine + Palbociclib; first compound 0.3162 µM) was 0.529. It also gave a relative viability (Nelarabine + Palbociclib; first compound 1 µM) of 0.514, a relative viability (Adavosertib + Crizotinib; first compound 0.01 µM) of 0.846 and a relative viability (Adavosertib + Crizotinib; first compound 0.03162 µM) of 0.754. The relative viability (Adavosertib + Crizotinib; first compound 0.1 µM) was 0.887 and the relative viability (Adavosertib + Crizotinib; first compound 0.3162 µM) was 0.811.
